System: A375 human melanoma xenografts
Assay: In vivo therapeutic efficacy in A375 human melanoma xenografts (tumor volume, T/C, TGI), Example 14
Design: species or system human tumor in female BALB/c nude mice
Conditions: for T/C / TGI: PG-D21
Protocol: Agents were tested in the A375 human melanoma xenografts. Compound 26 and Compound 141 were administered to BALB/c nude mice bearing A375 tumors from PG-DO and dosed via PO twice a day (BID) or third a day (TIP) or dosed P daily (QD) from PG-D. Dabrafenib was administered to BALB/c nude mice bearing A375 tumors from PG-D1 and dosed via P daily (QD). Compound 26 was dosed at 1.5 mg/kg (QD), 2 mg/kg (TID), 3 mg/kg (BID), 6 mg/kg (QD) and 10 mg/kg (BID) for 21 days. Compound 141 was dosed at 0.75 mg/kg (BID), 1 mg/kg (TID), 1.5 mg/kg (BID), 3 mg/kg (QD) and 5 mg/kg (BID) for 21 days. Dabrafenib was dosed at 100 mg/kg for 21 days. This study was non-GLP.
One hundred and thirty-eight female BALB/c nude Mus Musculus mice procured from Shanghai Lingchang Biological Science and Technology Co., LTD between the ages of six to eight weeks and with body weight between eighteen and twenty-two grams were used for the study. A spare mouse was also procured.
The A375 tumor cells were maintained in vitro in DMEM medium supplemented with 10% fetal bovine serum and 1% Penicillin-Streptomycin at 37° C. in an atmosphere of 5% CO2 in air. The tumor cells were routinely sub-cultured twice weekly. The cells growing in an exponential growth phase were harvested and counted for tumor inoculation.
Each mouse was inoculated subcutaneously at the right flank with A375 cells (5×10^6) in 0.2 mL of PBS supplemented with Matrigel (PBS: Matrigel=1:1) for tumor development. Animals were grouped for efficacy study on day 15 after tumor inoculation when the average tumor volume reached 220 mm^3. The test articles administration and the animal numbers in each group are shown in the above experimental Table 75.
At the time of routine monitoring, the animals were checked daily for any effects of tumor growth and treatments on normal behavior such as mobility, food and water consumption (by looking only), body weight gain/loss (body weights were measured twice weekly), eye/hair matting and any other abnormal effect as stated in the protocol. Death and observed clinical signs were recorded on the basis of the numbers of animals within each subset.
Prior to the onset of drug treatment, mice were measured for tumor size in two dimensions using a caliper, and the tumor volume (mm^3) was calculated using formula V=0.5 a×b^2 where a and b are the long and short diameters of the tumor in mm, respectively. Mice were randomized into different treatment groups based on the tumor volume.
The major endpoint was to see if the tumor growth could be delayed or mice could be cured. The tumor size was then used for calculations of T/C value. The T/C value (in percent) is an indication of antitumor effectiveness; T and C are the mean volumes of the treated and control groups, respectively on specified day.
TGI was calculated for each group using the formula: TGI (%)=[1−(Ti−T0)/(Ci−C0)]×100; Ti is the average tumor volume of a treatment group on a given day, T0 is the average tumor volume of the treatment group on the day of treatment start, Ci is the average tumor volume of the vehicle control group on the same day with Ti, and C0 is the average tumor volume of the vehicle group on the day of treatment start.
A one-way ANOVA followed by Dunnett's multiple comparison test was performed to compare tumor volume among vehicle group (Group 1) and treatment groups (Group 2-Group 12). All data were analyzed using GraphPad Prism, ns indicates p>0.05, * indicates p<0.05, ** indicates p<0.01, *** indicates p<0.001 and **** indicates p<0.0001.
Tumor growth inhibition of Compound 26, Compound 141 and dabrafenib in the treatment of female BALB/c nude mice bearing A375 xenografts was calculated based on tumor volume measured on […]. TGI and T/C were calculated respectively and the data are detailed in Table 82.

[1] = Compound 141, 1.5 mg/kg p.o. BID × 21 days

Compound: CCN(C)S(=O)(=O)Nc1ccc(F)c(Oc2ccc3ncn(C4CC5(CCN(C6CC7(C6)CN(c6cc8c(cc6F)c(N6CCC(=O)NC6=O)nn8C)C7)CC5)C4)c(=O)c3c2)c1C#N (stereo not drawn) [Compound 141, 6-[2-cyano-3-[[ethyl(methyl)sulfamoyl]amino]-6-fluoro-phenoxy]-3-[7-[2-[3-(2,4-dioxohexahydropyrimidin-1-yl)-5-fluoro-1-methyl-indazol-6-yl]-2-azaspiro[3.3]heptan-6-yl]-7-azaspiro[3.5]nonan-2-yl]-4-oxo-quinazoline]
- Tumor volume (1.5 mg/kg p.o. BID x 21 days, day 35 (dosing-free regrowth), mean ± SEM): 1374 ± 116 mm^3
- Tumor volume (1.5 mg/kg p.o. BID x 21 days, day 39 (dosing-free regrowth), mean ± SEM): 1709 ± 117 mm^3
- Tumor volume (1.5 mg/kg p.o. BID x 21 days, day 42 (dosing-free regrowth), mean ± SEM): 2051 ± 177 mm^3
- Tumor volume (1.5 mg/kg p.o. BID x 21 days, day 46 (dosing-free regrowth), mean ± SEM): 2593 ± 258 mm^3
- Tumor volume (1.5 mg/kg p.o. BID x 21 days, day 49 (dosing-free regrowth), mean ± SEM): 2727 ± 382 mm^3
- Tumor volume (1.5 mg/kg p.o. BID x 21 days, day 53 (dosing-free regrowth), mean ± SEM): 3079 ± 78 mm^3
- Tumor volume (3 mg/kg p.o. QD x 21 days, day 0, mean ± SEM): 220 ± 15 mm^3
- Tumor volume (3 mg/kg p.o. QD x 21 days, day 4, mean ± SEM): 253 ± 15 mm^3
- Tumor volume (3 mg/kg p.o. QD x 21 days, day 7, mean ± SEM): 214 ± 17 mm^3
- Tumor volume (3 mg/kg p.o. QD x 21 days, day 11, mean ± SEM): 169 ± 15 mm^3
- Tumor volume (3 mg/kg p.o. QD x 21 days, day 14, mean ± SEM): 144 ± 16 mm^3
- Tumor volume (3 mg/kg p.o. QD x 21 days, day 18, mean ± SEM): 172 ± 19 mm^3
- Tumor volume (3 mg/kg p.o. QD x 21 days, day 21, mean ± SEM): 208 ± 30 mm^3
- Tumor volume (3 mg/kg p.o. QD x 21 days, day 25 (dosing-free regrowth), mean ± SEM): 486 ± 63 mm^3
- Tumor volume (3 mg/kg p.o. QD x 21 days, day 28 (dosing-free regrowth), mean ± SEM): 773 ± 63 mm^3
- Tumor volume (3 mg/kg p.o. QD x 21 days, day 32 (dosing-free regrowth), mean ± SEM): 985 ± 85 mm^3
- Tumor volume (3 mg/kg p.o. QD x 21 days, day 35 (dosing-free regrowth), mean ± SEM): 1339 ± 71 mm^3
- Tumor volume (3 mg/kg p.o. QD x 21 days, day 39 (dosing-free regrowth), mean ± SEM): 1690 ± 103 mm^3
- Tumor volume (3 mg/kg p.o. QD x 21 days, day 42 (dosing-free regrowth), mean ± SEM): 2099 ± 177 mm^3
- Tumor volume (3 mg/kg p.o. QD x 21 days, day 46 (dosing-free regrowth), mean ± SEM): 2737 ± 176 mm^3
- Tumor volume (3 mg/kg p.o. QD x 21 days, day 49 (dosing-free regrowth), mean ± SEM): 3078 ± 168 mm^3
- Tumor volume (3 mg/kg p.o. QD x 21 days, day 53 (dosing-free regrowth)): 3659 mm^3
- Tumor Size on PG-D21 (Mean ± SEM) (3 mg/kg p.o. QD × 21 days): 208 ± 30 mm^3
- T/C (3 mg/kg p.o. QD × 21 days): 11.0%
- TGI (3 mg/kg p.o. QD × 21 days): 100.8%
- Tumor volume (5 mg/kg p.o. BID x 21 days, day 0, mean ± SEM): 220 ± 15 mm^3
- Tumor volume (5 mg/kg p.o. BID x 21 days, day 4, mean ± SEM): 166 ± 11 mm^3
- Tumor volume (5 mg/kg p.o. BID x 21 days, day 7, mean ± SEM): 100 ± 7 mm^3
- Tumor volume (5 mg/kg p.o. BID x 21 days, day 11, mean ± SEM): 60 ± 4 mm^3
- Tumor volume (5 mg/kg p.o. BID x 21 days, day 14, mean ± SEM): 38 ± 2 mm^3
- Tumor volume (5 mg/kg p.o. BID x 21 days, day 18, mean ± SEM): 27 ± 3 mm^3
- Tumor volume (5 mg/kg p.o. BID x 21 days, day 21, mean ± SEM): 23 ± 3 mm^3
- Tumor volume (5 mg/kg p.o. BID x 21 days, day 25 (dosing-free regrowth), mean ± SEM): 31 ± 9 mm^3
- Tumor volume (5 mg/kg p.o. BID x 21 days, day 28 (dosing-free regrowth), mean ± SEM): 56 ± 24 mm^3
- Tumor volume (5 mg/kg p.o. BID x 21 days, day 32 (dosing-free regrowth), mean ± SEM): 109 ± 40 mm^3
- Tumor volume (5 mg/kg p.o. BID x 21 days, day 35 (dosing-free regrowth), mean ± SEM): 190 ± 67 mm^3
- Tumor volume (5 mg/kg p.o. BID x 21 days, day 39 (dosing-free regrowth), mean ± SEM): 345 ± 111 mm^3
- Tumor volume (5 mg/kg p.o. BID x 21 days, day 42 (dosing-free regrowth), mean ± SEM): 484 ± 147 mm^3
- Tumor volume (5 mg/kg p.o. BID x 21 days, day 46 (dosing-free regrowth), mean ± SEM): 732 ± 181 mm^3
- Tumor volume (5 mg/kg p.o. BID x 21 days, day 49 (dosing-free regrowth), mean ± SEM): 1015 ± 308 mm^3
- Tumor volume (5 mg/kg p.o. BID x 21 days, day 53 (dosing-free regrowth), mean ± SEM): 1470 ± 351 mm^3
- Tumor volume (5 mg/kg p.o. BID x 21 days, day 56 (dosing-free regrowth), mean ± SEM): 1433 ± 181 mm^3
- Tumor Size on PG-D21 (Mean ± SEM) (5 mg/kg p.o. BID × 21 days): 23 ± 3 mm^3
- T/C (5 mg/kg p.o. BID × 21 days): 1.2%
- TGI (5 mg/kg p.o. BID × 21 days): 111.8%
- Tumor Size on PG-D21 (Mean ± SEM) [1]: 208 ± 21 mm^3
- T/C [1]: 11.1%
- TGI [1]: 100.7%
